{"source": "patent US7252822B2", "about": "“Methods for treating post-surgical pain by administering an anti-nerve growth factor antagonist” (Rinat Neuroscience Corp., priority 2002, dated 2007)", "molecules": {"B1": {"name": "humanized anti-NGF antibody E3 (antibody, V domains shown)", "VH": "QVQLQESGPGLVKPSETLSLTCTVSGFSLIGYDLNWIRQPPGKGLEWIGIIWGDGTTDYNSAVKSRVTISKDTSKNQFSLKLSSVTAADTAVYYCARGGYWYATSYYFDYWGQGTLVTVS", "VL": "DIQMTQSPSSLSASVGDRVTITCRASQSISNNLNWYQQKPGKAPKLLIYYTSRFHSGVPSRFSGSGSGTDFTFTISSLQPEDIATYYCQQEHTLPYTFGQGTKLEIKR"}, "B2": {"name": "E3: humanized mouse anti-NGF monoclonal antibody; human IgG2a constant region with A330P331 to S330S331, kappa light chain, variable regions SEQ ID NO:1 and 2 (antibody, V domains shown)", "VH": "B1 VH", "VL": "DIQMTQSPSSLSASVGDRVTITCRASQSISNNLNWYQQKPGKAPKLLIYYTSRFHSGVPSRFSGSGSGTDFTFTISSLQPEDIATYYCQQEHTLPYTFGQGTKLEIKRT"}}, "key": {"[1]": {"test_system": "Male Sprague Dawley rats", "assay": "Post-surgical pain model (hind paw incision): resting pain, cumulative pain score", "type": "in vivo", "details": "rat", "protocol": "We used a pain model that mimics post surgical pain to assess the efficacy of treatment with anti-NGF antibody 911 (a mouse monoclonal antibody; see Hongo, et al., Hybridoma 19:215-227 (2000). Each experiment involved 16 animals (n=8 per group). The anti-NGF antibody was injected intra peritoneal (i.p.) at various concentratiosn per experiment (35 or 7 milligrams per kilogram) 15 hours pre-incision. The control group received no antibody but was injected i.p. with a saline solution.\nAnimals. Male Sprague Dawley rats weighting between 220-240 grams were purchased from Harlan (San Diego) and acclimated to the animal facility for one week prior to surgery.\nSurgery. The surgery was based on the procedure described by Brennan, et al. Pain 64:493-501 (1996). Animals were anesthetized with a 2% isoflurane in air mixture that was maintained during surgery via a nose cone. The plantar surface of the right hind paw was prepared with a povidone-iodine pad, and a 1-cm central longitudinal incision was made through skin and fascia, starting 0.5 cm from the edge of the heel and extending toward the toes. Measurements were made with a ruler with the foot held in a flexed position. The plantaris muscle was elevated using curved forceps and incised longitudinally. The muscle was incised through its full depth, between the origin and insertion. Bleeding was controlled throughout surgery by pressure applied through a gauze pad. The wound was closed with two mattress sutures (5-0 ethilon black monofilament). These sutures were knotted 5-6 times, with the first knot loosely tied. The wound site was swabbed with bacitracin solution. Animals were allowed to recover and rest in clean cages for two hours or more before behavioral testing began.\nEvaluating resting pain. A cumulative pain score was used to assess pain related to weight bearing. Animals were placed on a plastic mesh (grid: 8 mm^2) in clear plastic cages that were elevated on a platform (h: 18″) allowing inspection of the underside of their paws. After a 20 minute acclimation period, weight bearing was assessed on a scale of 0 to 2. A score of 0 was given if the paw was blanched or pressed against the mesh, indicating full weight bearing. A score of 1 was given if the paw was favored with the skin just touching the mesh, with no blanching or indentation of the skin. A score of 2 was given if the paw was held completely off the mesh. Flinching the paw was considered a 2 if the rat was still at rest. […] The sum of 6 scores (0-12) obtained during ½ hour was used to assess pain in the incised foot. Frequency of scores of 2 was also calculated and used to assess the incidence of severe pain or total guarding of the paw by the animal. Each animal was tested 24 hours before surgery (baseline), and 2 h, 24 h, 48 h, and 72 h postoperatively. […]"}, "[2]": {"test_system": "Male Sprague-Dawley rats", "assay": "Wound healing after dorsal skin incision: proportion of intact wounds", "type": "in vivo", "details": "rat, 5 mg/kg daily for five days intramuscularly, positive control; p<0.0005 vs saline or 911; FIG. 8", "description": "Male Sprague-Dawley rats weighing 250-350 grams were purchased from Harlan (Wisconsin) were brought into the facility and acclimated for at least one week. Animals were anaesthetized with isoflurane and the dorsal surface (back) was shaved and cleaned with povidone iodine followed by an alcohol pad. A 2.5 cm incision through the skin was made on the midline between the scapulae. Bleeding was controlled with pressure with a gauze pad. The wound was closed with four single 4-0 ethilon sutures and the animals were allowed to recover. Animals were then divided into three groups: one group receiving a single does of mouse monoclonal anti-NGF antibody 911 at the time of surgery (1 mg/kg, i.p.); one group receiving Ketorolac (5 mg/kg daily for five days starting the day of surgery, intramuscularly (IMO) as a positive control; and a saline treated control group (negative control). Ketoralac is known to inhibit wound healing. Haws et al. (1996) Ann Plast Surg. 37(2):147-51; Gerstenfeld et al. (2003) J Orthop Res. 21(4):670-5.\nThe area of the incision was examined and photographed daily starting at day one post surgery. […] Incisions were scored as “intact” if the entire incision remained closed, and “failed” if some or all of the incision re-opened. Results were expressed as the proportion of intact wounds (i.e., the number of intact wounds divided by the total number of animals scored)."}, "[3]": {"molecular_target": "T1, human NGF (human, UniProt P01138 122-239, limits assumed)", "T1 construct": "also called hNGF; human nerve growth factor", "T1 sequence (P01138 122-239 limits assumed)": "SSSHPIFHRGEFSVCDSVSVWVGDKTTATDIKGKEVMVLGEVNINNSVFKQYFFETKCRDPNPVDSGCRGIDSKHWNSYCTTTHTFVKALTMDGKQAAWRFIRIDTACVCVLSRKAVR", "assay": "binding affinity; method not given"}}}
{"molecule": "COC(=O)[C@@]1(O)C[C@H]2O[C@]1(C)n1c3ccccc3c3c4c(c5c6ccccc6n2c5c31)C(=O)NC4", "note": "[K252a]", "values": [{"measurement": "cumulative resting pain score three hours after dosing", "setting": "[1]; in vivo, ip, 4 mg/kg", "value": "significantly reduced resting pain"}, {"measurement": "resting pain reduction compared with anti-NGF antibody in similar experiments", "setting": "[1]; in vivo, ip, 4 mg/kg", "value": "reduced resting pain to the same extent that treatment with anti-NGF antibody did"}]}
{"molecule": "O=C(c1ccccc1)c1ccc2n1CCC2C(=O)O", "note": "(stereo not drawn) [ketorolac]", "values": [{"measurement": "wound healing (proportion of intact wounds)", "setting": "[2]", "value": "significantly inhibited"}]}
{"molecule": "B1", "values": [{"measurement": "Kd", "setting": "[3]", "value": "~0.07", "unit": "nM"}]}
{"molecule": "B2", "values": [{"measurement": "resting pain (cumulative pain score) 24 hours after surgery", "setting": "[1]; 0.02 mg/kg to 1 mg/kg i.p. 15 hours pre-incision, p<0.05 vs saline, FIG. 4", "value": "significantly reduced resting pain"}, {"measurement": "resting pain (cumulative pain score) 24 hours after surgery", "setting": "[1]; 0.5 mg/kg i.v. two hours after incision, vs saline, FIG. 5", "value": "significantly (p<0.05) reduced resting pain"}]}
